In ChEMBL document CHEMBL6109154, “Development of Novel PRMT7 Inhibitors for the Treatment of Prostate Cancer” (J Med Chem, 2025) one finds IC50, inhibition in vivo and Kd data, which are given here for 3 compounds.

For orientation: IC50 means the midpoint of a concentration-inhibition curve. The Kd is the equilibrium constant for the complex coming apart.

Each structure is given as a SMILES string.

For assay [1], the target named is Protein arginine N-methyltransferase 3 (Homo sapiens, UniProt O60678). Description: Inhibition of N-terminal His-tagged recombinant human PRMT3 (2 to 531 residues) extracted from Escherichia coli preincubated for 10 mins followed by substrate addition and measured after 3 hrs by MTase-Glo detection reagent based luminescence analysis.
Protein arginine N-methyltransferase 3, sequence (O60678 whole entry, the tested form may be a part): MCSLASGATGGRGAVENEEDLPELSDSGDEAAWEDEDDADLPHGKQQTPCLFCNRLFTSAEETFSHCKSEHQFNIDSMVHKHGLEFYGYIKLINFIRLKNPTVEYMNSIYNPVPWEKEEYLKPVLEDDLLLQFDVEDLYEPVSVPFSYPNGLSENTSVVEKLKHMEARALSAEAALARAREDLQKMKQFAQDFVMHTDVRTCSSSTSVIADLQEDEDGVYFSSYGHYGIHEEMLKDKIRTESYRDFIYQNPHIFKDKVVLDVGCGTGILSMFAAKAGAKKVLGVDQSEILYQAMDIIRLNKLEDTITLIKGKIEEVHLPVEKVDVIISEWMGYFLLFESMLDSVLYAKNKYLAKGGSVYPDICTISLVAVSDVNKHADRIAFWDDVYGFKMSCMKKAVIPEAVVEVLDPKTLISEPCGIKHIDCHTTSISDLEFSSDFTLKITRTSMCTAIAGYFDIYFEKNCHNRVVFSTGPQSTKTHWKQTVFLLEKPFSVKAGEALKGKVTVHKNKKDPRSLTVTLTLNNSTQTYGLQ
The target of assay [2] is T1, Protein arginine N-methyltransferase 9 (Homo sapiens, UniProt Q6P2P2).
T1 sequence (Q6P2P2 whole entry): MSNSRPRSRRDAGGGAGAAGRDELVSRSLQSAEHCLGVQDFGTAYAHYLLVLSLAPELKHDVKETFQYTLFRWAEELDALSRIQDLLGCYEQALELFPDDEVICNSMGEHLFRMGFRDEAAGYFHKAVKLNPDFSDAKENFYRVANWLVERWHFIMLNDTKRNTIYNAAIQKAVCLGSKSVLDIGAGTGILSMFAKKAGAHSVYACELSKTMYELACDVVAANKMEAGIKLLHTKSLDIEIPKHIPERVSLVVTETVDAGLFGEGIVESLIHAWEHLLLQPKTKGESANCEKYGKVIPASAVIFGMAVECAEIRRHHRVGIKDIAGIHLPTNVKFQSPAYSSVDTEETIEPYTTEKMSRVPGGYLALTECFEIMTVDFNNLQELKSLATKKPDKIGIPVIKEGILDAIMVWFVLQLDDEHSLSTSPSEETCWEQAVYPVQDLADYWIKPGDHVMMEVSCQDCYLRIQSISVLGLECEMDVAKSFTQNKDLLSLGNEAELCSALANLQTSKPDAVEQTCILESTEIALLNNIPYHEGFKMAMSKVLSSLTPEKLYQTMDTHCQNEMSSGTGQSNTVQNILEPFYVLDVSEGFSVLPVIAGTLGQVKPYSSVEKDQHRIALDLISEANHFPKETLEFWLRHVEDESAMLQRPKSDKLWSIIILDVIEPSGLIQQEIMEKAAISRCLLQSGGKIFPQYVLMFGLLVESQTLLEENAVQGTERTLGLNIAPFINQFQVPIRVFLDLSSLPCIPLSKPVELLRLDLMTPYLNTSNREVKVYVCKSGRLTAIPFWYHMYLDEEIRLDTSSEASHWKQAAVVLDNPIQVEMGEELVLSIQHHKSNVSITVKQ
In words: Inhibition of PRMT9 (unknown origin) incubated overnight by Alphascreen microplate reader. In general terms: In Alpha technology, singlet oxygen from a donor bead excites a nearby acceptor bead.

Assay [3] addresses Protein arginine N-methyltransferase 6 (Homo sapiens, UniProt Q96LA8). Description: Inhibition of PRMT6 (unknown origin) preincubated for 10 mins followed by substrate addition and measured after 3 hrs by MTase-Glo detection reagent based luminescence analysis.
Assay [4] addresses Protein arginine N-methyltransferase 8 (Homo sapiens, UniProt Q9NR22). In words: Inhibition of N-terminal His-tagged human PRMT8 (61 to 394 residues) extracted from Escherichia coli preincubated for 10 mins followed by substrate addition and measured after 3 hrs by MTase-Glo detection reagent based luminescence analysis.
In assay [5] the target is T2, Histone-arginine methyltransferase CARM1 (Homo sapiens, UniProt Q86X55).
T2 sequence (Q86X55 whole entry): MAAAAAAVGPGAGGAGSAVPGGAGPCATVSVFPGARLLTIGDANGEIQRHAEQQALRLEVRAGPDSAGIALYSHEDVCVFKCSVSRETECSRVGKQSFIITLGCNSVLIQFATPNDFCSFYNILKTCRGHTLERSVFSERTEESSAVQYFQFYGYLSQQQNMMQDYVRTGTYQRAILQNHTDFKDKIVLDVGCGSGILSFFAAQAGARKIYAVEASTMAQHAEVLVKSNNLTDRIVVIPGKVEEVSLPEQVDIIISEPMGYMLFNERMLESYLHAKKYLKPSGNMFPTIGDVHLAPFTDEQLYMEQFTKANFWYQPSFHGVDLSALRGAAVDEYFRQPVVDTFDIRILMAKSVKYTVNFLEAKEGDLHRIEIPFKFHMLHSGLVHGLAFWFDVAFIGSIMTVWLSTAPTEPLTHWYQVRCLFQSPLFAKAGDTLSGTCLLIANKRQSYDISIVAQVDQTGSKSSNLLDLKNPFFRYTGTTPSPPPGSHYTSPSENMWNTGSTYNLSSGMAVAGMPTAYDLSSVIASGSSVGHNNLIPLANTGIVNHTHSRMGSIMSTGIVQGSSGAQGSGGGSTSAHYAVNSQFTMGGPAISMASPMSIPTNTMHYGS
Description: Inhibition of N-terminal FLAG-tagged recombinant full length human PRMT4 extracted from baculovirus expression system preincubated for 10 mins followed by substrate addition and measured after 3 hrs by MTase-Glo detection reagent based luminescence analysis.

In assay [6] the target is Protein arginine N-methyltransferase 1 (Homo sapiens, UniProt Q99873). Description: Inhibition of N-terminal FLAG-tagged recombinant full length human PRMT1 extracted from baculovirus expression system preincubated for 10 mins followed by substrate addition and measured after 3 hrs by MTase-Glo detection reagent based luminescence analysis.
Protein arginine N-methyltransferase 1, sequence (Q99873 whole entry): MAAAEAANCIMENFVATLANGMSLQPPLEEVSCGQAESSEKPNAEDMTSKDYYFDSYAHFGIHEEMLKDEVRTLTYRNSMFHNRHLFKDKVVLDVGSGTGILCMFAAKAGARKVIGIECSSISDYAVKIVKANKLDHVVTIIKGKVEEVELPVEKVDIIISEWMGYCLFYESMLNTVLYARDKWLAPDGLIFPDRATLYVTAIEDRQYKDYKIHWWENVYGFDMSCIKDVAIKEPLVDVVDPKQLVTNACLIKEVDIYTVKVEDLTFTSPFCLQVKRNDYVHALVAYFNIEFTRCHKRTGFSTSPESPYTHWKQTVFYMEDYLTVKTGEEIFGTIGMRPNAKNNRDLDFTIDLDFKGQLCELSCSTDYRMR
The target of assay [7] is T3, Protein arginine N-methyltransferase 7 (Homo sapiens, UniProt Q9NVM4).
T3 sequence (Q9NVM4 whole entry): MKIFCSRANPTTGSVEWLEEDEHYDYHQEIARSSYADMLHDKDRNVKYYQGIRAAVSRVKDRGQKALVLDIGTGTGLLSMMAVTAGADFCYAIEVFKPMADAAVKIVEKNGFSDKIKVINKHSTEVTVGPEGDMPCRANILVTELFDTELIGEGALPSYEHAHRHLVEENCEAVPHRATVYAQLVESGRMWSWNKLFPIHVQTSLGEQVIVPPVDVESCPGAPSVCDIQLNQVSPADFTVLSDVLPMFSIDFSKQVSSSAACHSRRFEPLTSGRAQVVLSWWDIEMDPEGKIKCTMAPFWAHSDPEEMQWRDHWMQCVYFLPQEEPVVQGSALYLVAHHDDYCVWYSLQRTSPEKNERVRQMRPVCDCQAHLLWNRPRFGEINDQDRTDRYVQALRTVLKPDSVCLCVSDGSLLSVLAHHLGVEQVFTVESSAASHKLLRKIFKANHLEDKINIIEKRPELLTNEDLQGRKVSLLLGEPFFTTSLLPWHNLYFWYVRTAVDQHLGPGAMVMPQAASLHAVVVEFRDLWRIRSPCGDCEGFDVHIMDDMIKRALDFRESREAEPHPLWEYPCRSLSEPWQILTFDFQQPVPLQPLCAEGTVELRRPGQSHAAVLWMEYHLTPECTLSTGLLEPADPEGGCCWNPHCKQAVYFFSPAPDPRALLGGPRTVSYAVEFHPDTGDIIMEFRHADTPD
Description: Inhibition of N-terminal FLAG-tagged recombinant human PRMT7 extracted from baculovirus infected Sf9 cells using Histone H4 (1 to 21) peptide as substrate preincubated for 15 mins followed by [3H]-SAM and substrate addition and measured after 180 mins by microplate counter analysis.

The next assay relates to PC-3. In words: Antiproliferative activity against human PC-3 cells assessed as reduction in cell viability incubated for 48 hrs by CCK8 assay. Type of assay: functional, cell-based. To be noted: PC-3, 48 h. On the technique in general: Formazan colour is commonly taken as a measure of viable cells.
For assay [8], the system named is DU-145. In words: Antitumor activity against human DU-145 cells xenografted in male BALB/c nude mouse assessed as tumor growth inhibition at 20 mg/kg, ip relative to control. The following applies: DU-145, read-out: TGI. Background: A xenograft is tissue or cells of one species grown in another, often human tumour cells in immunodeficient mice.
In the next assay the test system is VCaP. Description: Antiproliferative activity against human VCaP cells assessed as reduction in cell viability incubated for 48 hrs by CCK8 assay. In kind it is functional, cell-based.
Assay [9] concerns the target T3, Protein arginine N-methyltransferase 7. In words: Binding affinity to N-terminal GST-tagged recombinant full length human PRMT7 extracted from baculovirus infected Sf9 cells assessed as dissociation constant by SPR analysis.
The next assay deals with CWR22R. Description: Antiproliferative activity against human 22Rv1 cells assessed as reduction in cell viability incubated for 48 hrs by CCK8 assay. The following applies: 22Rv1, 48 h. In kind it is functional, cell-based.
Assay [10] has as its system DU-145. In words: Antiproliferative activity against human DU-145 cells assessed as reduction in cell viability incubated for 48 hrs by CCK8 assay. The following applies: DU-145, 48 h. Type of assay: functional, cell-based.

Protein arginine N-methyltransferase 8, sequence (Q9NR22 whole entry, the tested form may be a part): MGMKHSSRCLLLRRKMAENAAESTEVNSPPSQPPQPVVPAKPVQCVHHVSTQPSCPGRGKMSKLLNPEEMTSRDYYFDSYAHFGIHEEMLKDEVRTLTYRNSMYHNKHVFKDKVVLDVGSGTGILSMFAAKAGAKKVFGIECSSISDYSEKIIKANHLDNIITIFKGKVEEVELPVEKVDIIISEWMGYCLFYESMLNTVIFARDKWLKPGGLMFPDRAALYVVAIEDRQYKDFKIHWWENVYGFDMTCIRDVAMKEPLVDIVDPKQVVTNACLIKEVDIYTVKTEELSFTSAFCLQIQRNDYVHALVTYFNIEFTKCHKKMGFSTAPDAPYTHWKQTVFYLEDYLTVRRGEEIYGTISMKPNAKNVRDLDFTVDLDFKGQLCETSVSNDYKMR
Protein arginine N-methyltransferase 6, sequence (Q96LA8 whole entry, the tested form may be a part): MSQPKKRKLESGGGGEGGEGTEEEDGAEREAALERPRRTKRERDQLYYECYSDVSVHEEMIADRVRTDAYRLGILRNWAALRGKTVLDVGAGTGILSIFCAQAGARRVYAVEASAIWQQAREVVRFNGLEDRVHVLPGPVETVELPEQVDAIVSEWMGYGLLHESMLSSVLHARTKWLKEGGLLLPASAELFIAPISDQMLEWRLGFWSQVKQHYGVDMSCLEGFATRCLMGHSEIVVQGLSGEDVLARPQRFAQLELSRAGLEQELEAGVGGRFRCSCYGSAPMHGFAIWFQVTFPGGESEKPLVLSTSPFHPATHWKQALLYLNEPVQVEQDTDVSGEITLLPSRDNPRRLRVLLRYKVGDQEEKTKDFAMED

Turning to `COc1cc(-c2nc(Nc3ccc4nc(C)cc(N)c4c3)c3sccc3n2)cc(OC)c1OC`, the IC50 in [1], in assay [2], in [3], in assay [4], in assay [5] and in assay [6] was more than 100 µM in each case.
In the case of `COc1cc(-c2ccc3ncc(Nc4ccc(N(C)C)cc4)nc3c2)cc(OC)c1OC`, the IC50 in assay [7] stood at 26 µM.
Turning to `COc1cc(-c2ncc(F)c(Nc3ccc4nc(C)cc(N)c4c3)n2)cc(OC)c1OC`, the IC50 in the assay with PC-3 worked out at 1.13 µM; with VCaP it was 1.66 µM; in assay [7], 9.91 µM; in the assay on CWR22R, 1.32 µM; with DU-145 [10], 1.47 µM. In the assay with DU-145 [8], the inhibition in vivo at 20 mg/kg was 40.3%. Also, the Kd in [9] was found to be 7.12 µM.
